According to PMC4984408 (ChemistryOpen, 2016):
Read-outs that look alike come from different tables or passages of the source.

Assays:
[1] = tested on: dengue viruses (DENV, serotype D2); format: cell-based, dengue virus
[2] = tested on: yellow fever (YFV, 17 D strain of ASIBI); format: cell-based, yellow fever virus

SMILES | CC50 (Vero cells) | D2 inhibition [% Cells alive] ([1]; 5 μM) | D2 inhibition [% Cells alive] ([1]; 10 μM) | YFV inhibition [% Cells alive] ([2]; 5 μM) | YFV inhibition [% Cells alive] ([2]; 10 μM) | YFV inhibition [% Cells alive] ([2]; 20 μM) | anti-DENV activity (in words) [1] | D2 inhibition [% Cells alive] ([1]; 20 μM) | cytotoxicity (in words) (Vero cells) | anti-YFV activity (in words) [2]
NC(=O)c1ncn([C@@H]2O[C@H](COC(c3ccccc3)(c3ccccc3)c3ccccc3)[C@@H](OC(c3ccccc3)(c3ccccc3)c3ccccc3)[C@H]2O)n1 [5 B, 5′,3′‐bis‐O‐tritylribavirin] | > 20 µM | 0 % Cells alive | 0 % Cells alive | 0 % Cells alive | 0 % Cells alive | 0 % Cells alive |  |  |  | 
O=c1[nH]c(=O)n([C@@H]2O[C@H](COC(c3ccccc3)(c3ccccc3)c3ccccc3)[C@@H](O)[C@H]2O)cc1F [6 D, 5′‐O‐trityl‐5‐fluorouridine] |  | 0 % Cells alive | 0 % Cells alive | 0 % Cells alive | 0 % Cells alive |  | no inhibitory properties | 0 % Cells alive |  | 
COc1ccc(C(OC[C@H]2O[C@@H](n3cc(F)c(=O)[nH]c3=O)[C@H](O)[C@@H]2O)(c2ccccc2)c2ccc(OC)cc2)cc1 [6 H, 5′‐O‐dimethoxytrityl‐5‐fluorouridine] | > 20 µM | 0 % Cells alive | 0 % Cells alive | 9.22±0.46 % Cells alive | 30.89±1.85 % Cells alive |  |  | 0 % Cells alive |  | 
COc1ccc(C(OC[C@H]2O[C@@H](n3ccc(=O)[nH]c3=O)[C@H](O)[C@@H]2O)(c2ccccc2)c2ccc(OC)cc2)cc1 [9 H, 5′‐O‐Dimethoxytrityluridine] | > 20 µM | 0 % Cells alive | 0 % Cells alive |  |  |  |  | 0 % Cells alive |  | 
COc1ccc(C(OCC2OC(n3ccc(NC(C)=O)nc3=O)CS2)(c2ccccc2)c2ccc(OC)cc2)cc1 (stereo not shown) [12 H, 5′‐O‐Dimetoxytrityl‐N‐acetyl‐lamivudine] | > 20 µM | 0 % Cells alive | 0 % Cells alive | 0 % Cells alive | 0 % Cells alive | 70.45±18.31 % Cells alive |  | 0 % Cells alive |  | 
O=c1[nH]c(=O)n([C@H]2C[C@H](O)[C@@H](COC(c3ccccc3)(c3ccccc3)c3ccccc3)O2)cc1I [14 D, 5′‐O‐Trityl‐5‐iodo‐2′‐deoxyuridine] |  | 0 % Cells alive | 0 % Cells alive | 0 % Cells alive | 0 % Cells alive | 0 % Cells alive |  | 2.47±0.06 % Cells alive |  | 
COc1ccc(C(OC[C@H]2O[C@@H](n3cc(F)c(=O)[nH]c3=O)C[C@@H]2O)(c2ccccc2)c2ccc(OC)cc2)cc1 [15 H, 5′‐O‐dimethoxytrityl‐5‐fluoro‐2′‐deoxyuridine] | > 20 µM | 0 % Cells alive | 0 % Cells alive | 0 % Cells alive |  |  |  | 0 % Cells alive |  | 
O=c1ccn([C@@H]2O[C@H](COC(c3ccccc3)(c3ccccc3)c3ccccc3)[C@@H](O)[C@H]2F)c(=O)[nH]1 [16 D, 5′‐O‐trityl‐2′‐fluoro‐2′‐deoxyuridine] |  | 0 % Cells alive | 0 % Cells alive | 0 % Cells alive | 0 % Cells alive | 0 % Cells alive |  |  |  | 
COc1ccc(C(OC[C@H]2O[C@@H](n3ccc(=O)[nH]c3=O)[C@H](F)[C@@H]2O)(c2ccccc2)c2ccc(OC)cc2)cc1 [16 H, 5′‐O‐dimethoxytrityl‐2′‐fluoro‐2′‐deoxyuridine] | > 20 µM | 0 % Cells alive | 0 % Cells alive | 0 % Cells alive | 0 % Cells alive |  |  | 0 % Cells alive |  | 
Cc1cn([C@@H]2O[C@H](COC(c3ccccc3)(c3ccccc3)c3ccccc3)[C@@H](O)[C@H]2O)c(=O)[nH]c1=O [19 D, 5′‐O‐trityl‐5‐methyluridine] |  | 0 % Cells alive | 0 % Cells alive | 0 % Cells alive | 0 % Cells alive |  | no inhibitory properties | 0 % Cells alive |  | 
O[C@H]1[C@H](O)[C@@H](COC(c2ccccc2)(c2ccccc2)c2ccccc2)O[C@H]1n1cnc2c(NC(c3ccccc3)(c3ccccc3)c3ccccc3)nc(F)nc21 [20 D‐NHTr, 5′‐O,N‐trityl‐fludarabine] | > 20 µM |  |  | 0 % Cells alive | 0.28 % Cells alive | 0.84 % Cells alive |  |  | no cytotoxicity | devoid of any significant anti‐YFV inhibitory effect
Cc1cn([C@H]2C[C@H](OC(c3ccccc3)(c3ccccc3)c3ccccc3)[C@@H](COC(c3ccccc3)(c3ccccc3)c3ccccc3)O2)c(=O)[nH]c1=O [21 B, 5′,3′‐bis‐O‐trityl‐thymidine] |  | 0 % Cells alive | 0 % Cells alive | 0 % Cells alive | 0 % Cells alive | 0.95±0.17 % Cells alive |  | 0 % Cells alive |  | 
O=c1[nH]c(NC(c2ccccc2)(c2ccccc2)c2ccccc2)nc2c1ncn2CCC(COC(c1ccccc1)(c1ccccc1)c1ccccc1)COC(c1ccccc1)(c1ccccc1)c1ccccc1 [22 B‐NHTr, 2‐N,5′,3′‐O‐tri‐trityl penciclovir] | > 20 µM | 0 % Cells alive | 0 % Cells alive | 0 % Cells alive | 0 % Cells alive | 8.09±0.04 % Cells alive |  | 0 % Cells alive |  | 
Cc1cn([C@H]2C[C@H](O)[C@@H](COC(c3ccccc3)(c3ccccc3)c3ccccc3)O2)c(=O)[nH]c1=O [Compound 1, 5′‐O‐trityl‐thymidine] |  | 0 % Cells alive | 0 % Cells alive | 0 % Cells alive | 1.25±0.03 % Cells alive |  | no inhibitory properties | 0 % Cells alive |  | 
